Laboratory results: patent publication US20240158447A1, “PEPTIDES FOR USE IN THE TREATMENT OR PREVENTION OF MYOCARDIAL DAMAGE” (THE UNIVERSITY OF WESTERN AUSTRALIA, priority 2020, published 2024)

How the values were obtained:
[1] = test system: cTnI-G203S mutant myocytes; assay: Mitochondrial membrane potential (JC-1) response to BayK(−), cTnI-G203S myocytes (Example 10); assay type: cell-based, mouse; conditions: for BayK(−) induced increase in ψm (JC-1 fluorescence): 0.5 μM peptide, calcium-free, FIG. 11B
Procedure: (§1) In this experiment wt myocytes were pre-exposed to 0.1, 0.5 or 1 μM for 20 min and assessed changes in flavoprotein oxidation and ψm.
(§2) Measurement of mitochondrial membrane potential: The fluorescent indicator 5,5′,6,6′-tetrachloro1,1′,3,3′-tetraethylbenzimidazolylcarbocyanine iodide (JC-1) was used to measure mitochondrial membrane potential (ψm) as previously described (Viola H M, Arthur P G, Hool L C. Transient exposure to hydrogen peroxide causes an increase in mitochondria-derived superoxide as a result of sustained alteration in L-type Ca2+ channel function in the absence of apoptosis in ventricular myocytes. Circ Res. 2007; 100(7):1036-44). […] Images were acquired at 2 min intervals with 50 ms exposure. Metamorph 6.3 (Version 7.10.3) was used to quantify the signal by manually tracing myocytes. An equivalent region not containing cells was used as background and was subtracted. The 580 nm/535 nm ratiometric fluorescence values recorded over 6 min before and 4 min after addition of drugs were averaged and alterations in fluorescent ratios reported as the percentage increase from the basal average. To confirm that the signal was indicative of ψm, 40 mM NaCN was added at the end of each experiment to collapse ψm. In addition, individual 580 and 535 signals were assessed in each experiment to determine whether the fluorescent indicator was accurately measuring ψm. For calcium-free experiments, cells were exposed to calcium-free HBS (supplemented with 3 mM EGTA and 200 nM JC-1) for at least 3 h prior to measuring changes in ψm.
Based on results obtained from in vitro assessment of flavoprotein oxidation, the effect of 0.5 μM AID-TAT variants on changes in mitochondrial membrane potential (ψm) was further explored. Experiments were performed using JC-1 fluorescence under calcium-free conditions as previously described (Viola H, Johnstone V, Cserne Szappanos H, Richman T, Tsoutsman T, Filipovska A, et al. The L-type Ca(2+) channel facilitates abnormal metabolic activity in the cTnI-G2035 mouse model of hypertrophic cardiomyopathy. J Physiol. 2016; 594(14):4051-70; Viola H M, Shah A A, Johnstone V P A, Cserne Szappanos H, Hodson M P, Hool L C. Characterization and validation of a preventative therapy for hypertrophic cardiomyopathy in a murine model of the disease. Proc Natl Acad Sci U S A. 2020; 117(37):23113-24). […] FIG. 11 presents the mean+/−SE of JC-1 fluorescence from cTnI.2 wt and cTnI-G203S mutant myocytes before and after exposure to 10 μM BayK(−) in the presence of 1 μM AID(S)-TAT, and 0.5 μM of variant peptides as indicated. N=no. of animals, n=no. of cardiomyocytes. P values shown compared with AID(S)-TAT as determined by the Kruskal-Wallis test.

cTnI.2 wt myocytes [2] = assay: Mitochondrial membrane potential (JC-1) response to BayK(−), wt myocytes (Example 10); assay type: cell-based, mouse; conditions: 0.5 μM peptide, calcium-free, FIG. 11A
Procedure: as §1
as §2, with “To confirm that the signal was indicative of ψm, 40 mM NaCN was added at the end of each experiment to collapse ψm.” left out, “For calcium-free experiments, cells were exposed to calcium-free HBS (supplemented with 3 mM EGTA and 200 nM JC-1) for at least 3 h prior to measuring changes in ψm.” left out
Based on results obtained from in vitro assessment of flavoprotein oxidation, the effect of 0.5 μM AID-TAT variants on changes in mitochondrial membrane potential (ψm) was further explored. Experiments were performed using JC-1 fluorescence under calcium-free conditions as previously described (Viola H, Johnstone V, Cserne Szappanos H, Richman T, Tsoutsman T, Filipovska A, et al. The L-type Ca(2+) channel facilitates abnormal metabolic activity in the cTnI-G2035 mouse model of hypertrophic cardiomyopathy. J Physiol. 2016; 594(14):4051-70; Viola H M, Shah A A, Johnstone V P A, Cserne Szappanos H, Hodson M P, Hool L C. Characterization and validation of a preventative therapy for hypertrophic cardiomyopathy in a murine model of the disease. Proc Natl Acad Sci U S A. 2020; 117(37):23113-24). […]

[3] = test system: cTnI-G203S mutant myocytes; assay: Flavoprotein oxidation response to BayK(−), cTnI-G203S myocytes (Example 10); assay type: cell-based, mouse; conditions: 0.5 μM peptide, 10 μM BayK(−), FIG. 10D
Procedure: as §1
Measurement of mitochondrial flavoprotein oxidation: Flavoprotein autofluorescence was used to measure flavoprotein oxidation based on previously described methods (Yaniv Y, Juhaszova M, Lyashkov A E, Spurgeon H A, Sollott S J, Lakatta E G. Ca2+-regulated-cAMP/PKA signaling in cardiac pacemaker cells links ATP supply to demand. J Mol Cell Cardiol. 2011; 51(5):740-8). […] Fluorescent images were acquired at 1 min intervals with 200 ms exposure. Metamorph 6.3 (Version 7.10.3) was used to quantify the signal by manually tracing myocytes. […] Fluorescence values recorded over 5 min before and 5 min after addition of drugs were averaged and alterations in fluorescent ratios reported as the percentage increase from the basal average. FCCP (50 μM) and NaCN (40 mM) was added at the end of each experiment to achieve a respective maximal and minimal fluorescence value indicative of maximal and minimal flavoprotein oxidation.
The ICA-L agonist BayK(−) was used to activate the channel and assess mitochondrial function. […] FIG. 10 presents the mean+/−SEM of flavoprotein fluorescence from cTnI.2 wt and cTnI-G2035 mutant myocytes before and after exposure to 10 μM BayK(−) in the presence of 1 μM AID(S)-TAT, and increasing concentrations of variant peptides as indicated. […]

cTnI-G203S mice [4] = assay: Heart weight to body weight ratio of treated cTnI-G203S mice; assay type: in vivo, mouse; conditions: 5 μM, 3×/wk/5 wk; compared with cTnI-G203S AID(S)-TAT; FIG. 16
Procedure: The effect of treatment of the mice with peptides on the development of hypertrophy assessed as changes in heart weight to body weight ratio was also examined. […] FIG. 16 presents the mean±SEM of heart weight to body weight ratio measurements from wt and cTnI-G203S mice treated with 10 μM AID(S)-TAT, 10 μM AID-TAT, 5 μM AIDP7-TAT, 5 μM AIDP14-TAT, 5 μM AIDP15-TAT or 5 μM AIDP16-TAT. n=number of mice as indicated. *P<0.05, **P<0.01 compared with cTnI-G203S AID(S)-TAT as determined by Kruskal-Wallis tests.

cTnI-G203S mice [5] = assay: Echocardiography of pre-cardiomyopathic cTnI-G203S mice (Example 15); assay type: in vivo, mouse; conditions: 5 μM, 3×/wk/5 wk; versus AID(S)-TAT; FIG. 15
Description: Twenty to thirty week-old male mice expressing the human cTnI gene encoding the human disease-causing cTnI-G203S were generated and used for the in vivo studies. By way of background, the mice develop hallmark features of HCM between 20 and 25 weeks (Viola H, Johnstone V, Cserne Szappanos H, Richman T, Tsoutsman T, Filipovska A, et al. The L-type Ca(2+) channel facilitates abnormal metabolic activity in the cTnI-G2035 mouse model of hypertrophic cardiomyopathy. J Physiol. 2016; 594(14):4051-70; Viola H M, Shah A A, Johnstone V P A, Cserne Szappanos H, Hodson M P, Hool L C. Characterization and validation of a preventative therapy for hypertrophic cardiomyopathy in a murine model of the disease. Proc Nati Aced Sci U S A. 2020; 117(37):23113-24; Tsoutsman T, Chung J, Doolan A, Nguyen L, Williams IA, Tu E, et al. Molecular insights from a novel cardiac troponin I mouse model of familial hypertrophic cardiomyopathy. J Mol Cell Cardiol. 2006; 41(4):623-32). Age-matched male mice expressing the normal human troponin I gene were used as controls and indicated as wild-type (wt). For in vivo studies, 20-week old cTnI-G203S mice were treated with 10 μM AID(S)-TAT (2 mg/kg) or 5 μM AID-TAT mutant peptides via intraperitoneal injection, 3 times per week for a total duration of 5 weeks. The peptide was dissolved in phosphate buffered saline solution (PBS), and the total amount of the 10 μM AID-TAT mutant peptides administered over 5 weeks was 0.9 mg. The total amount of the 5 μM AID-TAT mutant peptides administered over 5 weeks was 0.45 mg Male mice were utilized to eliminate potential differences in responses due to gender. The number of mice used is indicated by N.
Echocardiographic studies to measure left ventricular function were performed on mice under light methoxyflurane anaesthesia with the use of an i13L probe on a Vivid™ 7 IQ ultrasound system (GE Healthcare, Little Chalfont, UK) as previously described (Viola H, Johnstone V, Cserne Szappanos H, Richman T, Tsoutsman T, Filipovska A, et al. The L-type Ca(2+) channel facilitates abnormal metabolic activity in the cTnI-G2035 mouse model of hypertrophic cardiomyopathy. J Physiol. 2016; 594(14):4051-70; Viola H M, Shah A A, Johnstone V P A, Cserne Szappanos H, Hodson M P, Hool L C. Characterization and validation of a preventative therapy for hypertrophic cardiomyopathy in a murine model of the disease. Proc Natl Acad Sci U S A. 2020; 117(37):23113-24; Viola H M, Johnstone V P A, Cserne Szappanos H, Richman T R, Tsoutsman T, Filipovska A, et al. The Role of the L-Type Ca(2+) Channel in Altered Metabolic Activity in a Murine Model of Hypertrophic Cardiomyopathy. JACC Basic Transl Sci. 2016; 1(1-2):61-72). Each N represents the average of quantitative measurements from wt or cTnI-G203S mice for each treatment group.

cTnI.2 wt myocytes [6] = assay: Flavoprotein oxidation response to BayK(−), wt myocytes (Example 10); assay type: cell-based, mouse; conditions: 1 μM peptide 20 min, 10 μM BayK(−), FIG. 10A
Procedure: as §1
Measurement of mitochondrial flavoprotein oxidation: Flavoprotein autofluorescence was used to measure flavoprotein oxidation based on previously described methods (Yaniv Y, Juhaszova M, Lyashkov A E, Spurgeon H A, Sollott S J, Lakatta E G. Ca2+-regulated-cAMP/PKA signaling in cardiac pacemaker cells links ATP supply to demand. J Mol Cell Cardiol. 2011; 51(5):740-8). […] Fluorescent images were acquired at 1 min intervals with 200 ms exposure. Metamorph 6.3 (Version 7.10.3) was used to quantify the signal by manually tracing myocytes. An equivalent region not containing cells was used as background and was subtracted. Fluorescence values recorded over 5 min before and 5 min after addition of drugs were averaged and alterations in fluorescent ratios reported as the percentage increase from the basal average. FCCP (50 μM) and NaCN (40 mM) was added at the end of each experiment to achieve a respective maximal and minimal fluorescence value indicative of maximal and minimal flavoprotein oxidation.
The ICA-L agonist BayK(−) was used to activate the channel and assess mitochondrial function. […] FIG. 10 presents the mean+/−SEM of flavoprotein fluorescence from cTnI.2 wt and cTnI-G2035 mutant myocytes before and after exposure to 10 μM BayK(−) in the presence of 1 μM AID(S)-TAT, and increasing concentrations of variant peptides as indicated. N=no. of animals, n=no. of cardiomyocytes. P values shown compared with AID(S)-TAT as determined by the Kruskal-Wallis test.

Substance | BayK(−) induced increase in ψm (JC-1 fluorescence) [1] | normalising mitochondrial metabolic activity (in vitro, overall) ([1]; flavoprotein oxidation and JC-1 data together) | BayK(−) induced increase in ψm (JC-1 fluorescence) (cTnI.2 wt myocytes [2]) | BayK(−) induced increase in flavoprotein oxidation [3] | heart weight to body weight ratio (cTnI-G203S mice [4]) | EF, ejection fraction (cTnI-G203S mice [5]) | FS, fractional shortening (cTnI-G203S mice [5]) | IVSd, intraventricular septum in diastole (cTnI-G203S mice [5]) | IVSs, intraventricular septum in systole (cTnI-G203S mice [5]) | LVEDd, left ventricular end diameter during diastole (cTnI-G203S mice [5]) | LVEDs, left ventricular end diameter during systole (cTnI-G203S mice [5]) | LVPWd, left ventricular posterior wall in diastole (cTnI-G203S mice [5]) | LVPWs, left ventricular posterior wall in systole (cTnI-G203S mice [5]) | BayK(−) induced increase in flavoprotein oxidation (cTnI.2 wt myocytes [6])
AIDP14-TAT: QQEEEDLKGYLDWITQAE with TAT sequence | significantly attenuated the response | most effective in normalising mitochondrial metabolic activity | significantly attenuated the response | significantly attenuated increases in flavoprotein oxidation resulting from BayK(−) exposure | significantly decreased heart weight/body weight | effectively restored | effectively restored | effectively restored | effectively restored | trend toward increased LVEDd | effectively restored | effectively restored | effectively restored | –
AIDP15-TAT: QQEEEDEKGYLDWITQAE with TAT sequence | significantly attenuated the response | – | significantly attenuated the response | – | – | effectively restored | effectively restored | effectively restored | effectively restored | – | – | – | effectively restored | just as effective at attenuating the response in wt myocytes as the original AID-TAT
